Values quoted from earlier work as cited in PMC9103764, “Pilot Study on Acute Effects of Pharmacological Intraperitoneal L-Homoarginine on Homeostasis of Lysine and Other Amino Acids in a Rat Model of Isoprenaline-Induced Takotsubo Cardiomyopathy” (International Journal of Molecular Sciences, 2022).

System: serotonin receptor 4
Settings: cited from earlier work

## NCCCC[C@H](N)C(=O)O [Lys, L-lysine]
  action at serotonin receptor 4: partial serotonin receptor 4 antagonist
